Data from a melting point compilation (Tetko et al.; mined from patent text by program, amines drawn as free bases though some values may be those of a salt).

Row | melting point [°C] | Compound
1 | 150 to 152 | COCCc1nc2c(N)nc3c(c2n1CCCNS(C)(=O)=O)CCCC3
2 | 85 to 88 | COc1ccc(C(F)(F)F)cc1-c1ccc(S(=O)(=O)N2c3ccccc3CC2C(=O)NCCOc2ccc(CC(=O)O)cc2)cc1 (stereo unspecified)
3 | 208 to 213 | CCCCN1C(N)=NS(=O)(=O)N=C1Oc1cccc(C)c1
4 | 189 to 190 | Cc1cc(-c2nc3cccnn3c2-c2ccnc(NC(=O)NCCO)c2)ccc1F
5 | 200 to 204 | CC(=O)Nc1ccc(Sc2c(NCC3CC3)cc(C(=O)O)cc2S(N)(=O)=O)cc1
6 | 120 to 121 | CC(C)(C)c1cc(C(=O)c2ccoc2)cc2c1OCC2(C)C
7 | 60 to 62 | CCN(CCCCCN(CCCCCN(CC)S(=O)(=O)c1c(C)cc(C)cc1C)S(=O)(=O)c1c(C)cc(C)cc1C)S(=O)(=O)c1c(C)cc(C)cc1C
8 | 169 to 170 | O=C(O)COc1ccc2c(c1)-c1nc(S(=O)(=O)C(c3ccccc3)c3ccccc3)sc1CC2
9 | 35 to 38 | CCCCCCCCCCCCc1cc(C)on1
10 | 154 to 156 | O=C(O)COc1ccc(OC(F)(F)F)cc1C(=O)NCc1cccc([N+](=O)[O-])c1
11 | 175 | CCN1CC(=O)Nc2cc(Nc3ncc(Cl)c(Nc4ccccc4S(=O)(=O)C(C)C)n3)c(OC)cc2C1
12 | 100 to 102 | COc1ccc(-c2sc3cc(OC)ccc3c2C(=O)c2ccccc2)cc1
13 | 157 to 159 | COc1ccc(S(=O)(=O)Nc2nc(-c3cccc([N+](=O)[O-])c3)cs2)cc1
14 | 211 to 212 | CCOC(=O)c1cc(Oc2ccc3c(C(=O)O)cccc3c2)ncn1
15 | 160 to 161 | COc1ccc(-c2ccc(C(=O)Nc3ccc4cc(CN5CCCCCC5)cnc4c3C)cc2F)cc1
16 | 60 to 61 | CCCc1c(OCCCOc2cc(O)c(-c3cocn3)cc2CC)cccc1Oc1ccccc1C(=O)O

Row | melting point [°C] | Compound
17 | 165 to 166 | CC(=O)N1C(C)(C)CC(OC(=O)C(Cc2cc(C(C)(C)C)c(O)c(C(C)(C)C)c2)(Cc2cc(C(C)(C)C)c(O)c(C(C)(C)C)c2)C(C)=O)CC1(C)C
18 | 278 to 280 | O=C1CCC(N2Cc3cc(CNC(=O)c4ccc(Cl)cc4)ccc3C2=O)C(=O)N1 (stereo unspecified)
19 | 183 to 184 | CCCn1nc2c(N)nc3ccccc3c2c1CCCc1cc(C)no1
20 | 183 to 184 | CCc1nnc(/C=C/c2cn(-c3ccccc3)nc2OCc2ccc(OCc3nc(-c4ccco4)oc3C)c(OC)c2)o1
21 | 184 to 186 | CCOC(=O)c1ccc(NC(=O)CC2c3ccccc3Sc3ccccc32)cc1
22 | 146 to 147 | C=CCOc1ccccc1S(=O)(=O)NC(=O)Nc1nc(C)nc(OC)n1
23 | 182 to 183 | CC(C)Cn1c(CN2C(=O)c3ccccc3C2=O)c(-c2ccc(Cl)cc2)c2cc(OCc3ccccc3)ccc2c1=O
24 | 93 to 94 | COc1cc(Cc2cnc(CCCOc3cccc(CN4CCCCC4)c3)[nH]c2=O)ccn1
25 | 67 to 70 | Cc1ccc2c(cc(CCCC(=O)O)n2S(=O)(=O)c2ccc3ncsc3c2)n1
26 | 150 | Cc1cc(COc2nn3c(-c4ccccc4F)nnc3cc2C2CCC2)no1
27 | 146 to 148 | CONC(=O)Nc1ccc(-c2sc3c(c2CN(C)C(C)c2ccccn2)c(=O)n(-c2ccccc2)c(=O)n3Cc2c(F)cccc2F)cc1 (stereo unspecified)
28 | 67 to 69 | CN(C=O)c1ccccc1C(=O)COS(C)(=O)=O
29 | 196 | CCOc1ccc2c(c1)C(C)(c1cccc(O)c1)C(=O)N2S(=O)(=O)c1ccc(C(=O)NC(C)(C)C)cc1 (stereo unspecified)
30 | 60 | Cc1c(Cc2nc(C(=O)O)cs2)n(S(=O)(=O)c2cccc(C(C)(C)C)c2)c2ccc(C(F)(F)F)cc12
31 | 198 to 199 | CCCc1ccc(S(=O)(=O)Nc2ccc3nc(C)c(C)nc3c2)cc1
32 | 118 to 121 | CCCc1nc(C(O)CCC)c(C(N)=O)n1Cc1ccc(-c2ccccc2C(=O)O)cc1 (stereo unspecified)

More lines, now with the values behind:

Row | Compound | melting point [°C]
33 | CCN1CCN(c2cc3ccccc3c(=O)[nH]2)C[C@@H]1CO | 171 to 173
34 | Nc1cc(=O)n(-c2ccccc2)[nH]1 | 218 to 219
35 | Cc1nc(N2CCN(Cc3ccccc3)CC2)ncc1C(N)=O | 195 to 196
36 | N#CCCCN(Cc1ccccc1)Cc1ccccc1 | 45 to 46
37 | CCC12CCCN3CCC4(C(=C(C(=O)OC)C1)Nc1ccccc14)C32 (stereo unspecified) | 124 to 125
38 | COc1cc2c(cc1OC)C(Oc1ccccc1C#N)CN(C)C2 (stereo unspecified) | 147 to 148
39 | Cc1c(C)n(C2CC2)c2c(OCc3ccccc3)nncc12 | 121 to 122
40 | Cc1cc2c(cc1Br)C(O)CC(C)(C)O2 (stereo unspecified) | 92 to 93
41 | O=C(NCC12CC3CC(CC(Cl)(C3)C1)C2)c1ccccc1Cl | 153
42 | CC(=O)c1ccc(Oc2ccc(S(=O)(=O)C3CCCCC3)cn2)cc1 | 116 to 118
43 | COc1ccc2[nH]c(C)cc2c1O | 118 to 119
44 | COc1ccc(C(=O)Cl)cc1OC(=O)c1ccccc1 | 120 to 122
45 | C#Cc1ccc(C2(C3CCCCCCC3)CCCCCCC2)cc1 | 167
46 | CCOC(=O)c1cn(C2CCCO2)c(=O)[nH]c1=O (stereo unspecified) | 125
47 | CC(C)(C)OC(=O)N1CCN(C(=O)OC(C)(C)C)C(C(=O)O)C1 (stereo unspecified) | 231 to 233
48 | O=c1[nH]c2ncc(-c3ccc(O)cc3)nc2n1CCC1CCOCC1 | 276 to 277
49 | CC(C#CC1CCCC1)N(O)C(N)=O (stereo unspecified) | 140 to 141
50 | COc1ccc(C2CN(C)CCC2=NO)cc1 (stereo unspecified) | 121 to 122
51 | Cc1cccc(C2SCCCS2)n1 | 74
52 | COC(=O)C(=O)c1ccc(OCOc2ccccc2)cc1 | 52 to 54
53 | CN(Cc1ccccc1)C(=O)Cn1c(-c2ccc(Cl)cc2)nc2cccnc21 | 87 to 89
54 | CCOP(=O)(CSCCOn1cnc2c(N)ncnc21)OCC | 93 to 95
55 | Nc1ccc2c(c1)ncn2-c1ccccc1O | 202 to 203

Row | Compound | melting point [°C]
56 | CCC(=CC(CNC(=O)c1cccnc1O)=NO)C(C)[N+](=O)[O-] (stereo unspecified) | 92 to 95
57 | C/C(=C(\C#N)C(N)=S)N1CCCCC1 | 161 to 166
58 | CC(C)(C)[Si](C)(C)O[C@@H]1C=CO[C@H](CO)[C@H]1O | 55 to 56
59 | CC(C)(C)c1nc(C(O)CCC2CCNCC2)c2ccccc2n1 (stereo unspecified) | 110
60 | O=C(NC1CCN(CCCc2ccc(F)cc2)CC1)C1=Cc2cnc3cccc(n23)S1 | 117 to 119
61 | Nc1ccc(Cl)c(C2SCCS2)c1 | 60 to 63
62 | C=CC[C@@H](N[S@](=O)C(C)(C)C)c1cc(F)cc(C#N)c1 | 38 to 40
63 | CCOC(=O)C(NC(C)=O)(C(=O)OCC)C1=Nc2ccc(C#N)cc2C(c2ccccc2F)=NC1 | 138 to 140
64 | COc1cc2c(cc1OCc1ccccc1)CCN(Cc1ccc(C#N)cc1)C2 | 161 to 162
65 | O=C(Nc1cccc(C(F)(F)F)c1)c1ccccc1NCCc1ccncc1 | 151 to 152
66 | Cc1cc(I)cc(C(=O)O)c1N | 214
67 | CCC1CC2(C)C(O)CCC2C2CCc3cccc(O)c3C12 (stereo unspecified) | 155 to 157
68 | O=c1[nH]c(-c2ccc(CCN3CCN(c4cccc(C(F)(F)F)c4)CC3)cc2)cs1 | 285 to 287
69 | CCCn1c2c(c3c4c(-c5ccccc5)csc4ccc31)CN(C)CC2 | 156
70 | N#CN=C(N)Cc1ccc2c(c1)Nc1nccnc1S2 | 218 to 219
71 | COCC=C(NC(C)=O)C(=O)OC | 61 to 63
72 | O=C(O)C(=O)c1ccc(C(F)(F)F)cc1 | 63 to 65
73 | O=C(Cc1ccc2ccccc2c1)N1CC=C(c2cccc(C(F)(F)F)c2)CC1 | 125 to 130
74 | O=C1Oc2ccc(Br)cc2C1c1ccc(Cl)cc1Cl (stereo unspecified) | 149 to 150
75 | Nc1ccccc1C(=O)CCCO | 58 to 61
76 | Cn1c2ccccc2c2cc(NC(=O)c3ccccc3Cl)ccc21 | 206
77 | CCCN1CCC(C2=C(C#N)C(c3cccc4nonc34)c3c[nH]nc3N2)CC1 (stereo unspecified) | 246
78 | COC(=O)C1=C(C)Nc2ccnn2C1c1ccccc1C(F)(F)F (stereo unspecified) | 209 to 210

Row | Compound | melting point [°C]
79 | CC1OC(COc2ccc(Cl)cc2)OC1=O (stereo unspecified) | 53 to 55
80 | Cc1cc(OCCCN2CCC[C@H]2C)ccc1C1=NNC(=O)CC1 | 121 to 123
81 | N#CCc1ccc2onc(-c3ccc(Cl)cc3)c2c1 | 118
82 | CNC(=O)c1cccc(F)c1Nc1nc(Nc2ccc3c(c2)NC(=O)C(N2CCOCC2)CC3)ncc1Cl (stereo unspecified) | 270 to 271
83 | CNC(=O)Cc1cccc2ccoc12 | 138 to 142
84 | CC(C)(C)c1nc(C=Cc2cccnc2)ncc1O | 150 to 151
85 | O=C1NCN=C(c2ccccc2)c2ccccc21 | 215
86 | Cc1cccc2[nH]c(=O)n(CCCN3CC=C(c4cccc(Cl)c4)CC3)c(=O)c12 | 180 to 183
87 | Nc1c(F)c(-c2ccc(C(F)(F)F)nc2)nc(C=O)c1Cl | 147 to 149
88 | CCOCc1nc2c(N)nc(C)c(C)c2n1NC1CCCCC1 | 108 to 110
89 | Cc1c(S(C)=O)c(C#N)nn1-c1c(Cl)cc(C(F)(F)F)cc1Cl (stereo unspecified) | 109 to 115
90 | c1ccn2nc(-c3ccncc3)nc2c1 | 188 to 190
91 | CC(C)N1C(=O)c2cnc(Cl)cc2C1=O | 94 to 96
92 | Cc1noc(-c2ccccc2NC(=O)OC2CCNCC2)n1 | 141 to 142
93 | COc1cc(OCCO)c([N+](=O)[O-])cc1[N+](=O)[O-] | 137 to 140
94 | CC(C)n1c(=O)[nH]c2ncc(-c3ccc(O)cc3)nc21 | 323 to 324
95 | N#Cc1ncc(Sc2ccccc2)nc1C#N | 109 to 112
96 | O=C1COc2ccc(C3=Nc4ccccc4SC3)cc2N1 | 280 to 281
97 | Nc1c2c(=O)n3c(nc2nn1CC(F)(F)F)SCC3 | 285 to 288
98 | Cn1nc(N)c2sc3ccccc3c21 | 177 to 178
99 | BrCc1ccc2nc(-c3ccccc3)oc2c1 | 162
100 | C[Si](C)(C)C/C=C/[C@@H](Cc1ccccc1)C(=O)N1C(=O)OC[C@H]1Cc1ccccc1 | 132 to 135
101 | CC(C)c1cc(C(=O)O)cs1 | 64 to 67
